The values that follow come from ChEMBL document CHEMBL4308849, “Antimalarial Lead-Optimization Studies on a 2,6-Imidazopyridine Series within a Constrained Chemical Space To Circumvent Atypical Dose-Response Curves against Multidrug Resistant Parasite Strains” (J Med Chem, 2018).

Data set [1] can be described thus: Metabolic stability in rat liver microsomes assessed as parent compound remaining at 0.1 uM after 60 mins in presence of NADPH by LC-MS/MS analysis. Format: ADME, Microsome. To be noted: read-out: Stability. (Microsomes from liver hold many membrane-bound enzymes, among them those of drug oxidation.)
Data set [2] is described as follows: Metabolic stability in mouse liver microsomes assessed as parent compound remaining at 0.1 uM after 60 mins in presence of NADPH by LC-MS/MS analysis. Format: ADME, Microsome. Particulars: read-out: Stability.
Data set [3] can be described thus: Metabolic stability in human liver microsomes assessed as parent compound remaining at 0.1 uM after 60 mins in presence of NADPH by LC-MS/MS analysis. Format: ADME, Microsome. To be noted: read-out: Stability.
Data set [4] in a line: AUC (0 to infinity) in Balb/c mouse at 2 mg/kg, iv by LC-MS/MS analysis. Format: ADME, organism-based. On the set-up: dose 2 mg/kg, route intravenous, time infinity. Particulars: in vivo.
The nature of data set [5]: Blood clearance in Balb/c mouse at 2 mg/kg, iv by LC-MS/MS analysis. It is filed as ADME, organism-based. Particulars: whole blood.
Data set [6] is described as follows: AUC (0 to infinity) in Balb/c mouse at 20 mg/kg, po by LC-MS/MS analysis. It is filed as ADME, organism-based. On the set-up: dose 20 mg/kg, route oral, time infinity. To be noted: in vivo.
Data set [7] in a line: Cmax in Balb/c mouse at 20 mg/kg, po by LC-MS/MS analysis. Format: ADME, organism-based. On the set-up: dose 20 mg/kg, route oral. Particulars: in vivo.
The nature of data set [8]: Tmax in Balb/c mouse at 20 mg/kg, po by LC-MS/MS analysis. Format: ADME, organism-based. To be noted: in vivo.
Data set [9] can be described thus: Oral bioavailability in Balb/c mouse at 20 mg/kg by LC-MS/MS analysis. Format: ADME, organism-based. To be noted: in vivo.
A short description of data set [10]: Half life in Balb/c mouse at 2 mg/kg, iv by LC-MS/MS analysis. It is filed as ADME, organism-based. To be noted: in vivo.
Data set [11] is described as follows: Volume of distribution in Balb/c mouse at 2 mg/kg, iv by LC-MS/MS analysis. To be noted: in vivo. It is filed as ADME, organism-based.

With `FC1(F)CC(c2nc3cnc(Nc4ccc(N5CCN(CC6CC6)CC5)cn4)cc3[nH]2)C1`, the remaining at 1 h, 0.1 µM was 52% in data set [1], 54% in data set [2] and 86% in [3].

Take `CC(C)(C)N1CCN(C(=O)c2ccnc(Nc3cc4[nH]c(-c5cccc(C(F)(F)F)c5)nc4cn3)c2)CC1`: the AUC(0-inf) (usually the area under the concentration-time curve extrapolated to infinity) is 0.933 µM·h in data set [4] and 0.2 µM·h in data set [6]. Also, the results for the remaining at 1 h, 0.1 µM in data set [1], in [2] and in [3] were 48%, 26% and 65%, respectively. The clearance (usually the volume of plasma or blood freed of the substance per unit of time) in [5] came to 68 mL/min/kg. The Cmax – broadly, the peak of the concentration-time curve – in data set [7] amounted to 40 nM. Besides, in [8], the Tmax – broadly, the time from dosing to the highest level – is 30 min. Further, the bioavailability (in general, the share of a dose that reaches the circulation, judged against a reference dose that is usually intravenous) in [9] came out at 2%. For the same compound, the half-life (usually how long it takes for the measured level to halve) in data set [10] was 1140 min. The Vd (in general, the apparent volume that relates the amount in the body to the concentration in plasma or blood) in data set [11] stood at 117 L/kg.

On to `FC(F)(F)c1ccc(-c2nc3cnc(Nc4ccc(N5CCN(CC6CC6)CC5)cn4)cc3[nH]2)cn1`, for which the remaining at 1 h, 0.1 µM was found to be 55% in data set [1], 68% in [2] and 93% in data set [3].

In the case of `Fc1ccc(-c2nc3cnc(Nc4ccc(C5CCNCC5)cn4)cc3[nH]2)cc1F`, the remaining at 1 h, 0.1 µM came to 97% in data set [1], 87% in data set [2] and 98% in data set [3].

`Fc1ccc(-c2nc3cnc(Nc4ccc(N5CCNCC5)cn4)cc3[nH]2)cc1F`: the remaining at 1 h, 0.1 µM came out at 73% in data set [1], 75% in [2] and 92% in data set [3].

With `Fc1ccc(Nc2cc3[nH]c(Nc4cc(N5CCNCC5)ccn4)nc3cn2)cc1C(F)(F)F`, the remaining at 1 h, 0.1 µM in data set [1] came out at 73%; in data set [2], 78%; in data set [3], 98%.

As for `Fc1ccc(Nc2cc3[nH]c(Nc4ccc(N5CCNCC5)cn4)nc3cn2)cc1C(F)(F)F`, the remaining at 1 h, 0.1 µM was 59% in data set [1], 55% in [2] and 92% in data set [3].

Regarding `CC(C)CN1CCN(c2ccc(Nc3cc4[nH]c(C5CCC(F)(F)CC5)nc4cn3)nc2)CC1`, the values for the remaining at 1 h, 0.1 µM in data set [1], in data set [2] and in data set [3] were 64%, 61% and 59%, respectively.

Consider `Fc1ccc(-c2nc3cnc(Nc4ccc(N5CCN(CC6CC6)CC5)cn4)cc3[nH]2)cc1F`, for which the results for the remaining at 1 h, 0.1 µM in [1], in data set [2] and in [3] were 9%, 14% and 7%, respectively.

With `O=C(c1ccnc(Nc2cc3[nH]c(-c4ccc(F)c(C(F)(F)F)c4)nc3cn2)c1)N1CCN(C2CC2)CC1`, the remaining at 1 h, 0.1 µM in data set [1] stood at 53%; in data set [2] it was 93%; in [3], 77%.

With `Fc1ccc(-c2nc3cnc(Nc4ccc(N5CCN(CC6CC6)CC5)cn4)cc3[nH]2)cc1C(F)(F)F`, the remaining at 1 h, 0.1 µM in data set [1] worked out at 36%; in data set [2], 41%; in [3] it was 52%.
